From ChEMBL document CHEMBL1201862, “PubChem BioAssay data set” (2004)
Activity calls are given as the source filed them.

Columns and labels:
[1] = target: Intestinal-type alkaline phosphatase (Mus musculus, UniProt P24822); test: mouse intestinal alkaline phosphatase activators, dose response, biochemical, luminescence, uHTS hits (AID 488783); format: functional
[2] = target: T1, Alkaline phosphatase, tissue-nonspecific isozyme (Homo sapiens, UniProt P05186); test: TNAP enzyme activators, dose response, selectivity assay for mouse IAP activator project, biochemical, TNAP isozyme, mouse IAP uHTS hits (AID 488880); format: functional
T1 sequence (P05186 whole entry): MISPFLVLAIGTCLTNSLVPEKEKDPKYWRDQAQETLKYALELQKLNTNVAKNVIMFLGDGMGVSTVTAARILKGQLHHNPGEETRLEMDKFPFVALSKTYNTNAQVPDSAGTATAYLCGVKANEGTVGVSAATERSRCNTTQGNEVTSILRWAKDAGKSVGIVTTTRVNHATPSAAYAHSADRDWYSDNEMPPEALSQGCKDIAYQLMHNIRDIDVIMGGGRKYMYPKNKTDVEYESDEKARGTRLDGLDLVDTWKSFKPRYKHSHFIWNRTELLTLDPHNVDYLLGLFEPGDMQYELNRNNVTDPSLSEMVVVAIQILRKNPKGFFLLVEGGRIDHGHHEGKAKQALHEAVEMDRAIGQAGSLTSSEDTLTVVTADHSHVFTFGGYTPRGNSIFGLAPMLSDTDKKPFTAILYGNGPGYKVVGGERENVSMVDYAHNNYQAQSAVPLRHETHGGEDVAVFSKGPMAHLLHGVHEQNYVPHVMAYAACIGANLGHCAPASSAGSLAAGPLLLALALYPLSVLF

[3] = target: Keap1/Nrf2 (Homo sapiens, UniProt Q14145); test: Keap1-Nrf2 protein-protein interaction inhibitors, dose response, biochemical, fluorescence polarization, cherry-picked samples (AID 588683)
[4] = target: Troponin, cardiac muscle (Homo sapiens, UniProt P19429+P45379+P63316); test: Fluorescence-based biochemical high throughput dose response assay for activators of the calcium sensitivity of cardiac Regulated Thin Filaments (RTF). [Related pubchem assays (depositor defined):AID493008, AID493018, AID504382, AID504383]; format: protein-complex assay
[5] = target: Intestinal-type alkaline phosphatase (Homo sapiens, UniProt P09923); test: activation of human intestinal alkaline phosphatase – biochemical, dose response (AID 488873); format: functional
[6] = target: Bifunctional protein GlmU (Mycobacterium tuberculosis, UniProt P9WMN3); test: Inhibitors of Mycobacterial Glucosamine-1-phosphate acetyl transferase (GlmU). Secondary screen.; design: species or system Mycobacterium tuberculosis H37Rv
[7] = target: Large T antigen (Simian virus 40, UniProt P03070); format: functional, Betapolyomavirus macacae;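 further: Confirmatory-stage PubChem screen for compounds that inhibit SV40 T antigen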
[8] = target: Tyrosine-protein phosphatase non-receptor type 12 (Homo sapiens, UniProt Q05209); test: SAR Selectivity Analysis of small molecule inhibitors of PEST using pCAP in a fluorescence assay. [Related pubchem assays (depositor defined):AID1779, AID1784, AID2135]; format: functional
[9] = target: T2, Dual specificity protein phosphatase 3 (Homo sapiens, UniProt P51452); test: VHR1 phosphatase inhibitors, biochemical (AID 1878)
[10] = target: T2, Dual specificity protein phosphatase 3; test: VHR1 phosphatase inhibitors, primary screen, biochemical, absorbance, uHTS (AID 1654)
[11] = target: Genome polyprotein (dengue virus type 2, UniProt P29990); test: Dengue-2 NS5 methyltransferase inhibitors, primary screen, biochemical, confirmation dose response (AID 588689); format: functional
[12] = target: T3, Dual specificity protein phosphatase 6 (Rattus norvegicus, UniProt Q64346); test: MKP-3 phosphatase inhibitors, primary screen, biochemical, rat enzyme, in vitro (AID 425)
T3 sequence (Q64346 whole entry): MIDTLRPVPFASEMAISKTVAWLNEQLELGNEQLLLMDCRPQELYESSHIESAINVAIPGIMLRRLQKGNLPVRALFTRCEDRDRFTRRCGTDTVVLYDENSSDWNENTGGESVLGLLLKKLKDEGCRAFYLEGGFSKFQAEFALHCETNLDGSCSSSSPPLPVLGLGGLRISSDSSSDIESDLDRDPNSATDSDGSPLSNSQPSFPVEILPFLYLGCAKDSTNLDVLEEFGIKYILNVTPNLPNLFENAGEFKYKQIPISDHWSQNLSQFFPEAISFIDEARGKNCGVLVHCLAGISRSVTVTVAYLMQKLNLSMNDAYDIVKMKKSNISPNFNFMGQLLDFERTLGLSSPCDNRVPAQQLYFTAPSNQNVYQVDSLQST

[13] = target: T4, Apoptotic protease-activating factor 1 (Homo sapiens, UniProt O14727); test: activation of Apaf-1 mediated apoptosis – fluorescent, uHTS hits, dose response (AID 588554); format: functional
T4 sequence (O14727 whole entry): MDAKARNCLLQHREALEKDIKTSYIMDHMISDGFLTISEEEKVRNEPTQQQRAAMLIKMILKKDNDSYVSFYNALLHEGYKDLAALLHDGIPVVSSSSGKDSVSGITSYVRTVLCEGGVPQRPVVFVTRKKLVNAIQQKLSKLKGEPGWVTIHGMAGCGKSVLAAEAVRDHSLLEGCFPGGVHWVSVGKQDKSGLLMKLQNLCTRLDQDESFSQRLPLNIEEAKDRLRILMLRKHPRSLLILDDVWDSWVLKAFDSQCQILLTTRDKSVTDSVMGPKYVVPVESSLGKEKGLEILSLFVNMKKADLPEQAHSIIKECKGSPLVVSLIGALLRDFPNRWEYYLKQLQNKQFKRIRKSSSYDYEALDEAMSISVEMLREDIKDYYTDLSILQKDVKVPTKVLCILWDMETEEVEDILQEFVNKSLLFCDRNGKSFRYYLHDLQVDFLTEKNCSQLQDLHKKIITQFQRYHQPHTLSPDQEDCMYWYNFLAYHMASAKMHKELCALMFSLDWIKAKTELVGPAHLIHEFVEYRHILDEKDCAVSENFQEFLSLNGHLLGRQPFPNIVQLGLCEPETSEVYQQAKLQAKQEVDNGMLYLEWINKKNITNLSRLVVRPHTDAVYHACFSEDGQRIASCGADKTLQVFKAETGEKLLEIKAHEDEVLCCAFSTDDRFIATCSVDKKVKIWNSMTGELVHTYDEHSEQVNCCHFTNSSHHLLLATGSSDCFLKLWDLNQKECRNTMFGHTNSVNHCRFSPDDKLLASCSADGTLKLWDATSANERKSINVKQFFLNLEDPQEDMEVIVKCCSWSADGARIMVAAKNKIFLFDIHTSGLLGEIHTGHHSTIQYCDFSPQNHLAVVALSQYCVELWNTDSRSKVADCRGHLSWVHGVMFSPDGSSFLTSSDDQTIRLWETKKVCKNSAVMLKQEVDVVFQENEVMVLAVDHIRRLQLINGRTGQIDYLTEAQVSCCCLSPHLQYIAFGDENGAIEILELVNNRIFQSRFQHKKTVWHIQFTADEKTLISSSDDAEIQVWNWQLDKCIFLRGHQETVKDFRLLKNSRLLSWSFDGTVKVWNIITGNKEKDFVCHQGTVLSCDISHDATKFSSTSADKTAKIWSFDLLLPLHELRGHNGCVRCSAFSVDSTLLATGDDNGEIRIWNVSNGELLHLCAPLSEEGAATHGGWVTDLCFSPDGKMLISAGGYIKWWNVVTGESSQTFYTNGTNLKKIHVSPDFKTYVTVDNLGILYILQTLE

[14] = target: T5, Tyrosine-protein phosphatase non-receptor type 7 (Homo sapiens, UniProt P35236); test: redox-dependent HePTP inhibition, mechanism study, biochemical, fluorescence (AID 2068); format: functional
T5 sequence (P35236 whole entry): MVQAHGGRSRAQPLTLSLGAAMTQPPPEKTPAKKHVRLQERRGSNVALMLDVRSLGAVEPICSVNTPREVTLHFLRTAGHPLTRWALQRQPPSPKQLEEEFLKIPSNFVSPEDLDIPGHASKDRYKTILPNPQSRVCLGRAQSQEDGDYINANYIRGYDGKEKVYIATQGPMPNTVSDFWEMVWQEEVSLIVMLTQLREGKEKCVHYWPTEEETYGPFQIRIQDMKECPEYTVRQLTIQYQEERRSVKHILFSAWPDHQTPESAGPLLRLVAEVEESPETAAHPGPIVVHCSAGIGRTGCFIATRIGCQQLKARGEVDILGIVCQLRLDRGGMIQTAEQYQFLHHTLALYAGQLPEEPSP

[15] = target: T3, Dual specificity protein phosphatase 6; format: functional
[16] = target: T6, Tyrosine-protein phosphatase non-receptor type 22 (Homo sapiens, UniProt Q9Y2R2); test: LYP (PTPN22) phosphatase inhibitor potency, SAR follow-up, biochemical, pCAP fluorogenic substrate, fluorescence, set 3 (AID 449727); format: functional
T6 sequence (Q9Y2R2 whole entry): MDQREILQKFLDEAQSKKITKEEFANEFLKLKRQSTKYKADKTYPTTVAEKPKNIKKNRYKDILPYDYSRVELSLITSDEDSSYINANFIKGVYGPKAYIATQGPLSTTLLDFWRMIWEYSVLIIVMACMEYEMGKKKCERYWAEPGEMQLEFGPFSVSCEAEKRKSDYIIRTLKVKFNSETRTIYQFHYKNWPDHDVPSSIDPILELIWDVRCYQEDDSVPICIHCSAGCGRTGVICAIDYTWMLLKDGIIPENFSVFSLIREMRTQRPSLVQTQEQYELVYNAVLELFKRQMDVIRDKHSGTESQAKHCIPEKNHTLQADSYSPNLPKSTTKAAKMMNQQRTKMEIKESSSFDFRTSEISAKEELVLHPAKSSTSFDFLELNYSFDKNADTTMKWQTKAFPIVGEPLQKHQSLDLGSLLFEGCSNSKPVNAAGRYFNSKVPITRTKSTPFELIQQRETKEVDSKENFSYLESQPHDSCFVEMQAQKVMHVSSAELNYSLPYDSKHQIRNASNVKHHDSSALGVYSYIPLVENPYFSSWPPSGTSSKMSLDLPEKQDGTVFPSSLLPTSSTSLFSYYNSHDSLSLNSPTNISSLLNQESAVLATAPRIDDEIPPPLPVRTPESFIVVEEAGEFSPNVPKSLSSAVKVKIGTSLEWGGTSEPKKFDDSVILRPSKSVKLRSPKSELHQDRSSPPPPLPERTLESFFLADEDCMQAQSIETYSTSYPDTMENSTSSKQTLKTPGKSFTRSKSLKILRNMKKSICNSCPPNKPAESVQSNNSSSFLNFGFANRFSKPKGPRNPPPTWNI

[17] = target: T6, Tyrosine-protein phosphatase non-receptor type 22; test: SAR LYP1 Fluorescent Assay using OMFP substrate for In Vitro dose response studies - Set 3. [Related pubchem assays (depositor defined):AID1779, AID1784, AID2140, AID2686]; format: functional
[18] = target: T2, Dual specificity protein phosphatase 3; test: SAR VHR1 Fluorescent Assay for In Vitro dose response studies. [Related pubchem assays (depositor defined):AID1654, AID1661, AID1878, AID1992, AID2004, AID2070, AID2085]; format: functional
[19] = target: T2, Dual specificity protein phosphatase 3; test: SAR VHR1 absorbance Assay for In Vitro dose response studies. [Related pubchem assays (depositor defined):AID1654, AID1661, AID1878, AID1992, AID2004]
[20] = target: T2, Dual specificity protein phosphatase 3; test: SAR VHR1 Fluorescent Assay for In Vitro dose response studies Set 3. [Related pubchem assays (depositor defined):AID1654, AID1661, AID1878]; format: functional
[21] = target: Cyclin-dependent kinase 5/CDK5 activator 1 (Homo sapiens, UniProt Q00535); test: CDK5/p35 kinase inhibitors, dose response, biochemical, cherry-picked samples, set 2 (AID 504545)
[22] = cytotoxicity in HEK-293T NF-kB-Luc cells, dose response, cytotoxicity control for B/T-cell NF-kB inhibitor project, cell-based, uHTS hits (AID 489019); format: functional;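 further: IC50 reflects cytotoxicity as loss of cell viability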
[23] = system: Jurkat; test: antigen receptor-induced NF-kB inhibitors, dose response, Jurkat, luciferase reporter, luminescence, B- and T-cell (AID 489004); format: functional, cell-based; settings: Homo sapiens;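 further: NF-kB luciferase reporter Jurkat cells stimulated with PMA plus ionomycin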

SMILES: Cc1ccc(/C=C2/SC(=O)NC2=S)o1
- EC50 [1]: 21.8 µM (active)
- EC50 [2]: 45.5 µM (active)
- AC50 [3]: > 52 µM (inactive)
- EC50 [4]: 17.9 µM (inactive)
- EC50 [5]: 41.4 µM (active)
- IC50 [6]: 170 µM (active)
- IC50 [7]: > 100 µM (active)

SMILES: CCc1ccc(NC2=NC(=O)/C(=C/c3cc(Br)c(OCC(=O)O)c(OC)c3)S2)cc1
- IC50 [8]: 2.78 µM (active)
- IC50 [9]: 3.93 µM (active)
- IC50 [10]: 10.5 µM (active)
- IC50 [11]: 39.5 µM (active)
- IC50 [12]: 84.5 µM (active)
- EC50 [13]: 15.8 µM (active)
- IC50 [14]: 0.28 µM (active)
- IC50 [15]: 44.9 µM (active)
- IC50 [16]: 6.74 µM (active)
- IC50 [17]: 10.3 µM (active)
- IC50 [18]: 0.878 µM (active)
- IC50 [19]: 3.62 µM (active)

SMILES: Cc1cc(Cl)cc2sc(N(Cc3cccnc3)C(=O)c3cccc(N4C(=O)CCC4=O)c3)nc12
- IC50 [20]: 58.2 µM (active)

SMILES: C=CC(=O)Nc1ccc(Nc2nc(N[C@H]3CC[C@H](N(C)C)CC3)nc3c2ncn3C(C)C)cc1
- AC50 [21]: 1.48 µM (active)
- IC50 [22]: > 80 µM (inactive)
- IC50 [23]: 0.17 µM (active)
